Test results taken from patent US8809001B2, “High throughput assays for inhibitors and activators of PAQR receptors” (University of Florida Research Foundation, Inc., priority 2007, dated 2014).
Where two headings read alike, the source gives them in different places.

Key:
mPRα = biological target: T1, mPRα (Homo sapiens, UniProt Q86WK9); experiment: cell-based; settings: for activation of mPRα, alterations at the 17 and 21 positions of the pregnane ring (in words): further analysis of mPRα (pRS316 plasmid, 2% galactose per FIG. 7C); for agonist activity on mPRα (in words): FET3-lacZ, steroids up to 10 μM
T1 construct: Full length and truncated mPRγ and mPRα were expressed in wild type cells grown in 2% galactose from the pGREG536 vector; expressed in transfected cells; host or cells: Saccharomyces cerevisiae (BY4742 wild type; also gpa mutants), GAL1-driven plasmids (TPI1 promoter in pJK90)
T1 sequence (Q86WK9 1-346): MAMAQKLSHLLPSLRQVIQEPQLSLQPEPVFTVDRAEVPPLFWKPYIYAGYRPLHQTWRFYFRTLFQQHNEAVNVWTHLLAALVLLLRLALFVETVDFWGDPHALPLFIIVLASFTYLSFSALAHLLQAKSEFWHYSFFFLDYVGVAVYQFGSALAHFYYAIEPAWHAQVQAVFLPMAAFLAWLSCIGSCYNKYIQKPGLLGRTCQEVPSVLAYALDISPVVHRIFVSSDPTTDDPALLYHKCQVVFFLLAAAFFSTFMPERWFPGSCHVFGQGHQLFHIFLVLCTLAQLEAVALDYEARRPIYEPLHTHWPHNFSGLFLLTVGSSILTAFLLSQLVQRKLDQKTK
Description: Plasmids and primers. Human PAQRs were cloned into various vectors by PCR from commercially/publically available cDNAs. […] The OST4 open reading frame in pJK90 was replaced with the PAQR6 and mPRα open reading frames by gap repair. Primers for all cloning reactions are listed herein. Proteins expressed in pYES260 have an N-terminal 6×-histidine tag followed by a TEV protease cleavage site. Proteins expressed in pGREG536 have an N-terminal 7×-HA tag. Proteins expressed in the pRS316 vector are untagged. The pYES260, pRS316 and pGREG536 vectors allow for galactose-inducible expression via the GAL1 promoter. […] A pRS316-based plasmid containing the STE2 gene under the control of the GAL1 promoter (Feng et al., 2000) was kindly provided by Dr. Nicholas G. Davis (Wayne State University).
Assays and growth conditions. Strains were maintained using standard protocol and grown in synthetic defined (SD) media with the appropriate amino acids to match the auxotrophies of the individual strains. […] In brief, overnights of cells grown in SD-glucose media were re-inoculated into iron-deficient LIM to induce the expression of FET3. […] All ligands were added to the growth medium upon re-inoculation into LIM. For experiments in which steroids were added as ligands, steroids were added from ethanol stocks and “untreated” controls are actually treated with an equal volume of ethanol to control for vehicle effects. […] All experiments were performed at least three times and a representative experiment is shown. EC50 values were obtained using the web-based BioDataFit software using sigmoidal curve-fitting. (web site changbioscience.com/stat/ec50.html)

mPRγ = biological target: T2, mPRγ (Homo sapiens, UniProt Q9NXK6); experiment: FET3-lacZ reporter repression in yeast expressing mPRγ; format: cell-based; settings: for agonist activity on mPRγ (in words): FET3-lacZ, steroids up to 10 μM
T2 construct: Full length and truncated mPRγ and mPRα were expressed in wild type cells grown in 2% galactose from the pGREG536 vector; expressed in transfected cells; host or cells: Saccharomyces cerevisiae (BY4742 wild type; also gpa mutants), GAL1-driven plasmids
T2 sequence (Q9NXK6 1-330): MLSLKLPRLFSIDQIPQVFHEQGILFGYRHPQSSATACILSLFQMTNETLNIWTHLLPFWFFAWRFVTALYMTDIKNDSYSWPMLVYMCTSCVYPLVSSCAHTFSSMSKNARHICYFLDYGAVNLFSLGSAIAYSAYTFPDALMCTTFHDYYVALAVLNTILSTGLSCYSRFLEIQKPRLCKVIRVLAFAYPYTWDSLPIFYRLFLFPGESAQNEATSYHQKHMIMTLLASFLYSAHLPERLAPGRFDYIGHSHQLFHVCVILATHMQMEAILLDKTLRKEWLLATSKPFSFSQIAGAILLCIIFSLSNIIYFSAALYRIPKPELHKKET
Description: Plasmids and primers. Human PAQRs were cloned into various vectors by PCR from commercially/publically available cDNAs. PAQRs were cloned into the pYES260 (Melcher, 2000), pRS316 (Liu et al., 1992) or pGREG536 (Jansen et al., 2005) expression vectors using gap repair. The pJK90 plasmid containing a Dual Topology Reporter (DTR)-tagged OST4 gene driven by the constitutive TPI1 promoter was kindly provided by Dr. Gunnar von Heijne (Stockholm University) (Kim et al., 2003). The OST4 open reading frame in pJK90 was replaced with the PAQR6 and mPRα open reading frames by gap repair. Primers for all cloning reactions are listed herein. Proteins expressed in pYES260 have an N-terminal 6×-histidine tag followed by a TEV protease cleavage site. Proteins expressed in pGREG536 have an N-terminal 7×-HA tag. Proteins expressed in the pRS316 vector are untagged. The pYES260, pRS316 and pGREG536 vectors allow for galactose-inducible expression via the GAL1 promoter. […] The FET3-lacZ plasmid was previously described (Kupchak et al., 2007). Plasmids derived from pADM4 carrying hyperactive alleles of Gpa1p (Gpa1p^Q323L) (Slessareva et al., 2006) and Gpa2p (Gpa2p^Q300L) (Harashima et al., 2002) driven by the ADH1 promoter were kindly provided by Dr. Henrik Dohlman (UNC Chapel Hill). A pRS316-based plasmid containing the STE2 gene under the control of the GAL1 promoter (Feng et al., 2000) was kindly provided by Dr. Nicholas G. Davis (Wayne State University).
(§1) Assays and growth conditions. Strains were maintained using standard protocol and grown in synthetic defined (SD) media with the appropriate amino acids to match the auxotrophies of the individual strains. Low Iron Medium (LIM) contains EDTA to limit iron-bioavailability and its composition has been previously described (Kupchak et al., 2007). […] In brief, overnights of cells grown in SD-glucose media were re-inoculated into iron-deficient LIM to induce the expression of FET3. 2% galactose was used as a carbon source to induce full expression of PAQR genes driven by the GAL1 promoter, while 0.05% galactose/1.95% raffinose was used for reduced PAQR expression. All ligands were added to the growth medium upon re-inoculation into LIM. For experiments in which steroids were added as ligands, steroids were added from ethanol stocks and “untreated” controls are actually treated with an equal volume of ethanol to control for vehicle effects. Cells were allowed to grow to mid-log phase at which time the activity of the FET3 gene was monitored using a FET3-lacZ promoter-reporter construct. lacZ activities are presented as a percentage of activity seen in untreated cells expressing the appropriate empty expression vector control. For individual experiments, each data point has been done in triplicate and the error bars represent +/−1 standard deviation. All experiments were performed at least three times and a representative experiment is shown. EC50 values were obtained using the web-based BioDataFit software using sigmoidal curve-fitting. (web site changbioscience.com/stat/ec50.html)

FET3 = experiment: FET3-lacZ reporter in wild type yeast carrying empty expression plasmid; format: cell-based, Saccharomyces cerevisiae; settings: no human PAQR
Description: as §1

[1] = read-out: EC50 for the activation of mPRα

What does the source list for `C[C@]12CC[C@H]3[C@@H](CCC4=CC(=O)CC[C@@]43C)[C@@H]1CC[C@@H]2C(=O)CO` [21-hydroxyprogesterone]?
activation of mPRα, alterations at the 17 and 21 positions of the pregnane ring (in words) (mPRα): similarly effective activators; EC50 (mPRα; [1]): ~0.01 µM

How did the “agonist activity on mPRγ (in words)” value (mPRγ) turn out when `CC#C[C@]1(O)CC[C@H]2[C@@H]3CCC4=CC(=O)CCC4=C3[C@@H](c3ccc(N(C)C)cc3)C[C@@]21C` [RU-486, Mifepristone] was run?
The value was “weak agonist”.

And the “increase in the EC50 of progesterone for the activation of mPRγ” value (mPRγ; exposure of cells to 100 nM RU-486)?
Its value is 15 fold.

What about the “antagonism of mPRγ” value (mPRγ; in the presence of 100 nM progesterone, effect disappears at higher concentrations) of the same compound?
The value was “weakly antagonizes”.

And the EC50 (mPRγ; mPRγ column of Table 4, ligand alone)?
Its EC50 is 6.8 µM.

What about the EC50 (mPRγ; mPRγ, weak agonist at high concentrations) of the same compound?
The EC50 was > 5 µM.

And the EC50 (mPRα; EC50, mPRα, ligand alone)?
Its EC50 is 11 µM.

And the “agonist activity on mPRα (in words)” value (mPRα)?
Its value is “weak agonist”.

What about the “effect of ligand on FET3 in cells carrying empty expression plasmid” value (FET3) of the same compound?
Its value is “had no effect”.

Which “agonist activity on mPRγ (in words)” value (mPRγ) does the source give for `C[C@]12CC[C@H]3[C@@H](CCC4=CC(=O)CC[C@@]43C)[C@@H]1CC[C@@H]2O` [testosterone] here?
Its value is “no agonist activity”.

What about the “increase of the EC50 of progesterone for mPRγ” value (mPRγ; in the presence of 10 μM of the named steroid) of the same compound?
Its value is 10 fold.

What about the “agonist activity on mPRα (in words)” value (mPRα) of the same compound?
The value was “no agonist activity”.

`C[C@]12CCC(=O)C=C1CC[C@@H]1[C@@H]2[C@@H](O)C[C@@]2(C)[C@H]1CC[C@]2(O)C(=O)CO` [11β,17α,21-trihydroxyprogesterone] was tested. Which “activation of mPRα, alterations at the 17 and 21 positions of the pregnane ring (in words)” value (mPRα) did it give?
The value was “ineffective agonist”.

With `C[C@]12CCC(=O)C=C1CC[C@@H]1[C@@H]2CC[C@@]2(C)[C@H]1CC[C@]2(O)C(=O)CO` [17α,21-dihydroxyprogesterone] as the compound, how does the “activation of mPRα, alterations at the 17 and 21 positions of the pregnane ring (in words)” value (mPRα) read?
The value was “similarly effective activators”.

And the EC50 (mPRα; [1])?
Its EC50 is ~0.01 µM.
